Measurements published in patent US7576177B2, “Hsp peptides and analogs for modulation of immune responses via antigen presenting cells” (Andromeda Biotech Ltd., priority 2002, dated 2009).
Like-named read-outs stand apart in the source and are kept apart here.

Key:
[1] = system: J774 cells; details: 48 hours
Description: Nitric oxide is a proinflammatory mediator produced by macrophages. The classic stimulus for nitric oxide production is lipopolysaccharide (LPS). Other molecules derived from pathogens such as hsp60 also induce macrophages to produce nitric oxide. Nitric oxide is usually produced by cells in conjunction with TNFα, IL-1 and IL-6.
The effect of p277(Val^6-Val^11) was tested on the production of nitric oxide from a macrophage cell line both the direct effect and the effect of p277(Val^6-Val^11) on the nitric oxide produced in response to hsp60.
The assay method is described in full in WO 01/43691. Briefly, J774 cells (2×10^5 cells/assay) were incubated for 48 hours with LPS, hsp60 or p277(Val^6-Val^11) or in inhibition assay, the cells were incubated with hsp60 at various concentrations in the presence or absence of 20 μg/ml p277(Val^6-Val^11). After 48 hours the supernatant was collected and tested for nitric oxide. The test for nitric oxide is performed by mixing an equal volume of the cell supernatant with Griess reagent and measuring the resultant color at 550 nm.

[2] = system: peripheral blood monocytes; assay: Peripheral blood monocytes: IP-10 after direct stimulation or preincubation then LPS; type: cell-based, human
Description: Peripheral blood mononuclear cells were prepared from leucocytes of blood lots obtained from the blood bank. The cells were plated at a concentration of 4×10^6 cell/ml/well in 24 well tissue culture dishes in medium containing 10% fetal calf serum. The cells were allowed to adhere for 2 hours at 37° C. After this time, non-adherent cells were washed away and the adherent cells incubated in fresh medium containing 10% human AB serum for 6-8 days, changing the medium after 4 days. These culture conditions were reported to give rise to monocytes.
For stimulation the medium was replaced with medium without serum. For preincubation, the cells were exposed overnight to the tested compounds at various concentrations and then LPS was added. The supernatant was collected after a further overnight incubation and tested for various cytokines by ELISA assays.

[3] = system: THP-1 cells
Description: Alternatively, APCs exposed to Hsp peptides and analogs are tested for direct influence on cytokine production. For example, pre-monocyte like derived cells (e.g. human monocytic cell line THP-1), which can be differentiated to monocytes by treatment with 100 nM phorbol ester (12-O-tetradecanoylphorbol-13-acetate, PMA) for 72 hours, are used. […] Differentiated cells are preincubated with the tested compounds or incubated after PMA treatment following subsequent stimulus with LPS. Secreted amounts of cytokines (such as TNF, and IP-10) are measured. Another example for direct measuring of cytokines secreted from APCs exposed to Hsp peptides and analogs involve measurement of cytokines (e.g. IP-10 and IL-8) secretion in human peripheral blood mononuclear cells cultured first with GM-CSF and IL4 and then with LPS, zymosan or tested peptide. These cells are also used for investigation of cell surface antigens (e.g. CD83 and CD86) indicating their maturation.
The human cell line THP-1 was used for this assay. These cells are pre-monocyte like derived from acute monocytic leukemia and can be differentiated to monocytes by treatment with 100 nM phorbol ester (12-O-tetradecanoylphorbol-13-acetate, PMA) for 72 hours. During this time the cells change morphology from round cells growing in suspension to larger, flat, adherent cells.

[4] = system: mouse monocyte line J774; assay: Secretion of oxygen free radicals (oxidative burst) from mouse monocyte line; type: cell-based; details: J774, FIG. 5
[5] = differentiated THP-1 cells incubated with peptide
[6] = preincubation, subsequent stimulus with 10 ng/ml LPS

VLGGGVALLRVIPALDSLTPANED [p277(Val^6-Val^11)]
direct stimulation of nitric oxide production [1]: Under no conditions did the peptide stimulate nitric oxide production
inhibition of hsp60 induced nitric oxide ([1]; hsp60 at various concentrations with 20 μg/ml peptide): Neither did it inhibit the hsp60 induced nitric oxide produced
amount of IP-10 produced in response to stimulus with LPS after preincubation ([2]; overnight preincubation, then LPS, FIG. 4): did increase the amount of IP-10
IP-10 after direct stimulation ([2]; peripheral blood monocytes, no preincubation, FIG. 4): did not give rise directly to II-10
IP-10 in response to hsp60 after preincubation ([2]; preincubation with p277(Val^6-Val^11), then hsp60): did not give rise to IP-10
direct IP-10 secretion [3, 5]: did not secrete TNF, or IP-10 directly
direct TNF secretion [3, 5]: did not secrete TNF
% stimulation of IP-10 secretion ([3]; preincubation with 0.0128 ng/ml, then 10 ng/ml LPS): −48%
% stimulation of IP-10 secretion ([3]; preincubation with 0.064 ng/ml, then 10 ng/ml LPS): 52%
% stimulation of IP-10 secretion ([3]; preincubation with 0.32 ng/ml, then 10 ng/ml LPS): 61%
% stimulation of IP-10 secretion ([3]; preincubation with 1.6 ng/ml, then 10 ng/ml LPS): 46%
% stimulation of IP-10 secretion ([3]; preincubation with 8 ng/ml, then 10 ng/ml LPS): 77%
% stimulation of IP-10 secretion ([3]; preincubation with 40 ng/ml, then 10 ng/ml LPS): 141%
% stimulation of IP-10 secretion ([3]; preincubation with 200 ng/ml, then 10 ng/ml LPS): 45%
% stimulation of IP-10 secretion ([3]; preincubation with 1000 ng/ml, then stimulation with 10 ng/ml LPS): 45%
amount of IP-10 secreted after preincubation and LPS (in words) [3, 6]: increased amount of IP-10 secreted
amount of TNF after preincubation and LPS [3, 6]: not significantly affected
inhibition of the oxidative burst (secretion of oxygen free radicals) [4]: effective
